This note sets out measurements from patent US20250188618A1, “AMINO ACID DERIVATIVES AND SULFUR DERIVATIVES AS BIODEGRADABLE CORROSION INHIBITORS” (ChampionX LLC, priority 2023, published 2025).

Test [1] is described as follows: Bubble cell test, corrosion rate by linear polarization resistance (LPR). Particulars: during 2 hour pre-corrode, prior to the addition of corrosion inhibitor; CO2 saturated 3% NaCl brine 80% / hydrocarbon oil 20%, 65° C. As to the method:
The derivatized succinate corrosion inhibitors made according to Examples 1-5 were evaluated using bubble cell tests to assess corrosion performance using linear polarization resistance testing. The derivatized succinate corrosion inhibitors were combined with the sulfur synergist 2-mercaptoethanol in a solution so that the concentrations of corrosion inhibitor and 2-mercaptoethanol were 10% and 1% by weight, respectively. Methanol, isopropanol, water, and combinations thereof were used as solvents. Acids or bases were sometimes added either to form or neutralize salts of the inhibitors to influence their solubility. This solution was then dosed into the bubble cell at a concentration of 50 ppm, ultimately providing 5 ppm of corrosion inhibitor and 0.5 ppm of 2-mercaptoethanol. The bubble test simulates low flow areas where little or no mixing of water and oil occurs. The test was conducted using a mixed fluid composed of 80% by volume of synthetic brine composed of 3% sodium chloride and 20% of hydrocarbon oil.
The brine without inhibitor was first placed into kettles and purged with carbon dioxide for one hour resulting in carbon dioxide saturated brine. The brine was heated to 65° C., and electrodes were introduced into the de-aerated brine, followed by de-aerated oil, all of which was continually purged with carbon dioxide at 1 bar CO2 to saturate the brine for a 2 hour pre-corrode. The kettles were magnetically stirred at 100 revolutions per minute (rpm) for the duration of the test. The CO2 purge was switched to a blanket, the corrosion inhibitor solution was added, and the test timer started. Data were collected overnight for 15-hour test duration.
The corrosion rate was measured by Linear Polarization Resistance (LPR) techniques. The working electrode used was carbon steel (C1018 grade). The counter and reference electrodes were both Hastelloy. The electrodes were all cleaned and polished prior to testing. Corrosion rates were given in milli-inches per year (mpy), calculated from the current measured by LPR. Corrosion inhibition is compared to two known corrosion inhibitors: a cationic surfactant (alkylbenzyldimethylammonium chloride) and a Tall oil fatty acid (TOFA)-diethylenetriamine (DETA) imidazoline.
The bubble cell results provide a low shear screening designed for continuous application. The performance is measured as percent protection by comparing the initial corrosion rate during pre-corrode, prior to the addition of a corrosion inhibitor, to the final corrosion rate, measured 15 hours after corrosion inhibitor dosing.

Test [2] is described as follows: Wheel box testing, corrosion inhibition persistence for batch applications. To be noted: 1% corrosion inhibitor active in 3% NaCl, 60° C., saturated CO2 at 1 atm, 96 hour, average of 2 runs; inhibitor in neutral form. As to the method:
The corrosion inhibitors were tested using wheel box testing which is a screening method for measuring corrosion inhibition persistence for batch applications. Metal coupons are dip-coated in a solution of the inhibitor in neutral form (non-salt), then placed onto a wheel and immersed in corrosive solution. The wheel is rotated in the solution under desired conditions. At regular time intervals, the solution without inhibitor is replenished. At the conclusion of the test, corrosion rates are measured as a function of the mass loss of the metal coupons.

In the case of “2-(carboxymethylthio)succinic acid, iso-C11-14-alkyl ester, monosodium salt [Example 7]”, in test [1], the “Initial corrosion rate (mpy)” value stood at 160.1 mpy.
Turning to “6,9-dioxa-3,12-diazatetradecane-1,2,13,14-tetracarboxylic acid, dioleyl ester [Example 10]”, the “Initial corrosion rate (mpy)” value in test [1] came to 157.2 mpy. Besides, the “Wheel-Box, % Inhibition” value in test [2] was 42%.
The corresponding values for “N-(2-ethylhexyl)aspartic acid, 2-ethylhexyl ester [Example 3]” are 248.8 mpy and 56%.
As to `CCCCCCCC/C=C\CCCCCCCCN[C@@H](CC(=O)O)C(=O)[O-].[K+]` [Example 5, N-(oleyl)aspartic acid, monopotassium salt], the “Initial corrosion rate (mpy)” value in test [1] turned out to be 103.3 mpy.
For the molecule “alkylbenzyldimethylammonium chloride [Cationic surfactant control, reference compound]”, the “Initial corrosion rate (mpy)” value in test [1] is 233.4 mpy.
On the same count and under the same terms, next, `CCCCCCCCCCCCOC(=O)CC1NCCN(CCN)C1=O` (centres unmarked) [Example 9, (4-(2-aminoethyl)-3-oxo-2-piperazinyl)acetic acid, dodecyl ester]: 204.3 mpy.
Regarding “N-(2-ethylhexyl)aspartic acid, C12-15-alkyl ester [Example 1]”, the “Initial corrosion rate (mpy)” value in test [1] was 245.7 mpy.
As to “N-(oleyl)aspartic acid, 2-ethylhexyl ester [Example 4]”, the “Initial corrosion rate (mpy)” value in test [1] came out at 213.0 mpy. Besides, the “Wheel-Box, % Inhibition” value in test [2] stood at 64%.
Turning to `CCCCCCCCCCCCSC(CC(=O)O)C(=O)[O-].[Na+]` (centres unmarked) [Example 8, 2-(dodecylthio)succinic acid, monosodium salt], the “Initial corrosion rate (mpy)” value in test [1] is recorded as 137.2 mpy.
For “2-sulfosuccinic acid, iso-C11-14-alkyl ester, disodium salt [Example 6]”, the “Initial corrosion rate (mpy)” value in test [1] was 186.9 mpy.
Same read-out and setting: next, “N-oleylaspartic acid, iso-C11-14-alkyl ester [Example 2]”: 252.4 mpy.
